{"source": "patent US10966978B2", "about": "“Dose and regimen for HDM2-p53 interaction inhibitors” (Novartis AG, priority 2016, dated 2021)", "system": "patients with advanced TP53 wild-type (WT) leukemias", "note": "Where two headings read alike, the source gives them in different places."}
{"smiles": "COc1ncc(-c2nc3c(n2C(C)C)[C@H](c2ccc(Cl)cc2)N(c2cc(Cl)cn(C)c2=O)C3=O)c(OC)n1", "note": "[HDM201, (S)-5-(5-Chloro-1-methyl-2-oxo-1,2-dihydro-pyridin-3-yl)-6-(4-chloro-phenyl)-2-(2,4-dimethoxy-pyrimidin-5-yl)-1-isopropyl-5,6-dihydro-1H-pyrrolo[3,4-d]imidazol-4-one]", "values": [{"measurement": "AE: Haemoglobin Decreased", "setting": "Regimen 2A N = 7, Grade 3/4", "result": "0 n (%)"}, {"measurement": "AE: Headache", "setting": "Regimen 2A N = 7, Grade 3/4", "result": "0 n (%)"}, {"measurement": "AE: Hyperbilirubinaemia", "setting": "Regimen 2A N = 7, Grade 3/4", "result": "0 n (%)"}, {"measurement": "AE: Hyperglycaemia", "setting": "Regimen 2A N = 7, Grade 3/4", "result": "0 n (%)"}, {"measurement": "AE: Hyperkalaemia", "setting": "Regimen 2A N = 7, Grade 3/4", "result": "0 n (%)"}, {"measurement": "AE: Hyperphosphataemia", "setting": "Regimen 2A N = 7, Grade 3/4", "result": "0 n (%)"}, {"measurement": "AE: Hyperuricaemia", "setting": "Regimen 2A N = 7, Grade 3/4", "result": "0 n (%)"}, {"measurement": "AE: Hypoalbuminaemia", "setting": "Regimen 2A N = 7, Grade 3/4", "result": "0 n (%)"}, {"measurement": "AE: Hypocalcaemia", "setting": "Regimen 2A N = 7, Grade 3/4", "result": "0 n (%)"}, {"measurement": "AE: Hypokalaemia", "setting": "Regimen 2A N = 7, Grade 3/4", "result": "0 n (%)"}, {"measurement": "AE: Hypomagnesaemia", "setting": "Regimen 2A N = 7, Grade 3/4", "result": "0 n (%)"}, {"measurement": "AE: Hyponatraemia", "setting": "Regimen 2A N = 7, Grade 3/4", "result": "0 n (%)"}, {"measurement": "AE: Hypophosphataemia", "setting": "Regimen 2A N = 7, Grade 3/4", "result": "0 n (%)"}, {"measurement": "AE: Hypotension", "setting": "Regimen 2A N = 7, Grade 3/4", "result": "0 n (%)"}, {"measurement": "AE: Infection", "setting": "Regimen 2A N = 7, Grade 3/4", "result": "0 n (%)"}, {"measurement": "AE: Infective Glossitis", "setting": "Regimen 2A N = 7, Grade 3/4", "result": "0 n (%)"}, {"measurement": "AE: Iron Overload", "setting": "Regimen 2A N = 7, Grade 3/4", "result": "0 n (%)"}, {"measurement": "AE: Leukopenia", "setting": "Regimen 2A N = 7, Grade 3/4", "result": "0 n (%)"}, {"measurement": "AE: Lip Oedema", "setting": "Regimen 2A N = 7, Grade 3/4", "result": "0 n (%)"}, {"measurement": "AE: Lipase Increased", "setting": "Regimen 2A N = 7, Grade 3/4", "result": "0 n (%)"}, {"measurement": "AE: Macular Oedema", "setting": "Regimen 2A N = 7, Grade 3/4", "result": "0 n (%)"}, {"measurement": "AE: Malaise", "setting": "Regimen 2A N = 7, Grade 3/4", "result": "0 n (%)"}, {"measurement": "AE: Mouth Haemorrhage", "setting": "Regimen 2A N = 7, Grade 3/4", "result": "0 n (%)"}, {"measurement": "AE: Nausea", "setting": "Regimen 2A N = 7, Grade 3/4", "result": "0 n (%)"}, {"measurement": "AE: Neutropenia/Neutrophil Count Decreased", "setting": "Regimen 2A N = 7, Grade 3/4", "result": "1 (14.3) n (%)"}, {"measurement": "AE: Oedema", "setting": "Regimen 2A N = 7, Grade 3/4", "result": "0 n (%)"}, {"measurement": "AE: Oedema Peripheral", "setting": "Regimen 2A N = 7, Grade 3/4", "result": "0 n (%)"}, {"measurement": "AE: Oral Disorder", "setting": "Regimen 2A N = 7, Grade 3/4", "result": "0 n (%)"}, {"measurement": "AE: Pain In Extremity", "setting": "Regimen 2A N = 7, Grade 3/4", "result": "0 n (%)"}, {"measurement": "AE: Pancytopenia", "setting": "Regimen 2A N = 7, Grade 3/4", "result": "0 n (%)"}, {"measurement": "AE: Pneumonia", "setting": "Regimen 2A N = 7, Grade 3/4", "result": "0 n (%)"}, {"measurement": "AE: Pollakiuria", "setting": "Regimen 2A N = 7, Grade 3/4", "result": "0 n (%)"}, {"measurement": "AE: Pyrexia", "setting": "Regimen 2A N = 7, Grade 3/4", "result": "0 n (%)"}, {"measurement": "AE: Rash", "setting": "Regimen 2A N = 7, Grade 3/4", "result": "0 n (%)"}, {"measurement": "AE: Rash Erythematous", "setting": "Regimen 2A N = 7, Grade 3/4", "result": "0 n (%)"}, {"measurement": "AE: Rash Papular", "setting": "Regimen 2A N = 7, Grade 3/4", "result": "0 n (%)"}, {"measurement": "AE: Rectal Haemorrhage", "setting": "Regimen 2A N = 7, Grade 3/4", "result": "0 n (%)"}, {"measurement": "AE: Renal Failure", "setting": "Regimen 2A N = 7, Grade 3/4", "result": "0 n (%)"}, {"measurement": "AE: Skin Exfoliation", "setting": "Regimen 2A N = 7, Grade 3/4", "result": "0 n (%)"}, {"measurement": "AE: Stomatitis", "setting": "Regimen 2A N = 7, Grade 3/4", "result": "0 n (%)"}, {"measurement": "AE: Subarachnoid Haemorrhage", "setting": "Regimen 2A N = 7, Grade 3/4", "result": "0 n (%)"}, {"measurement": "AE: Thrombocytopenia/Platelet Count Decreased", "setting": "Regimen 2A N = 7, Grade 3/4", "result": "2 (28.6) n (%)"}, {"measurement": "AE: Total", "setting": "Regimen 2A N = 7, Grade 3/4", "result": "3 (42.9) n (%)"}, {"measurement": "AE: Tumour Lysis Syndrome", "setting": "Regimen 2A N = 7, Grade 3/4", "result": "1 (14.3) n (%)"}, {"measurement": "AE: Vomiting", "setting": "Regimen 2A N = 7, Grade 3/4", "result": "0 n (%)"}, {"measurement": "AE: Weight Decreased", "setting": "Regimen 2A N = 7, Grade 3/4", "result": "0 n (%)"}, {"measurement": "AE: White Blood Cell Count Decreased", "setting": "Regimen 2A N = 7, Grade 3/4", "result": "1 (14.3) n (%)"}, {"measurement": "AE: Abdominal Discomfort", "setting": "Regimen 2C N = 8, All Grades", "result": "0 n (%)"}, {"measurement": "AE: Abdominal Pain", "setting": "Regimen 2C N = 8, All Grades", "result": "0 n (%)"}, {"measurement": "AE: Abdominal Pain Upper", "setting": "Regimen 2C N = 8, All Grades", "result": "0 n (%)"}, {"measurement": "AE: Amylase Increased", "setting": "Regimen 2C N = 8, All Grades", "result": "0 n (%)"}, {"measurement": "AE: Anaemia", "setting": "Regimen 2C N = 8, All Grades", "result": "5 (62.5) n (%)"}, {"measurement": "AE: Arthralgia", "setting": "Regimen 2C N = 8, All Grades", "result": "0 n (%)"}, {"measurement": "AE: Asthenia", "setting": "Regimen 2C N = 8, All Grades", "result": "2 (25.0) n (%)"}, {"measurement": "AE: Atrial Fibrillation", "setting": "Regimen 2C N = 8, All Grades", "result": "0 n (%)"}, {"measurement": "AE: Atypical Pneumonia", "setting": "Regimen 2C N = 8, All Grades", "result": "0 n (%)"}, {"measurement": "AE: Balanitis Candida", "setting": "Regimen 2C N = 8, All Grades", "result": "0 n (%)"}, {"measurement": "AE: Blood Alkaline Phosphatase Increased", "setting": "Regimen 2C N = 8, All Grades", "result": "0 n (%)"}, {"measurement": "AE: Blood Bilirubin Increased", "setting": "Regimen 2C N = 8, All Grades", "result": "0 n (%)"}, {"measurement": "AE: Blood Creatinine Increased", "setting": "Regimen 2C N = 8, All Grades", "result": "1 (12.5) n (%)"}, {"measurement": "AE: Blood Phosphorus Increased", "setting": "Regimen 2C N = 8, All Grades", "result": "0 n (%)"}, {"measurement": "AE: Blood Uric Acid Increased", "setting": "Regimen 2C N = 8, All Grades", "result": "0 n (%)"}, {"measurement": "AE: Bone Marrow Failure", "setting": "Regimen 2C N = 8, All Grades", "result": "0 n (%)"}, {"measurement": "AE: C-Reactive Protein Increased", "setting": "Regimen 2C N = 8, All Grades", "result": "0 n (%)"}, {"measurement": "AE: Cardiac Failure", "setting": "Regimen 2C N = 8, All Grades", "result": "0 n (%)"}, {"measurement": "AE: Cellulitis", "setting": "Regimen 2C N = 8, All Grades", "result": "0 n (%)"}, {"measurement": "AE: Chronic Graft Versus Host Disease", "setting": "Regimen 2C N = 8, All Grades", "result": "0 n (%)"}, {"measurement": "AE: Conjunctival Haemorrhage", "setting": "Regimen 2C N = 8, All Grades", "result": "0 n (%)"}, {"measurement": "AE: Constipation", "setting": "Regimen 2C N = 8, All Grades", "result": "1 (12.5) n (%)"}, {"measurement": "AE: Cough", "setting": "Regimen 2C N = 8, All Grades", "result": "0 n (%)"}, {"measurement": "AE: Cystitis Viral", "setting": "Regimen 2C N = 8, All Grades", "result": "0 n (%)"}, {"measurement": "AE: Cytomegalovirus Infection", "setting": "Regimen 2C N = 8, All Grades", "result": "0 n (%)"}, {"measurement": "AE: Decreased Appetite", "setting": "Regimen 2C N = 8, All Grades", "result": "4 (50.0) n (%)"}, {"measurement": "AE: Diarrhoea", "setting": "Regimen 2C N = 8, All Grades", "result": "2 (25.0) n (%)"}, {"measurement": "AE: Dyspepsia", "setting": "Regimen 2C N = 8, All Grades", "result": "0 n (%)"}, {"measurement": "AE: Dyspnoea", "setting": "Regimen 2C N = 8, All Grades", "result": "0 n (%)"}, {"measurement": "AE: Epistaxis", "setting": "Regimen 2C N = 8, All Grades", "result": "1 (12.5) n (%)"}, {"measurement": "AE: Fatigue", "setting": "Regimen 2C N = 8, All Grades", "result": "2 (25.0) n (%)"}, {"measurement": "AE: Febrile Neutropenia", "setting": "Regimen 2C N = 8, All Grades", "result": "3 (37.5) n (%)"}, {"measurement": "AE: Gamma-Glutamyltransferase Increased", "setting": "Regimen 2C N = 8, All Grades", "result": "0 n (%)"}, {"measurement": "AE: General Physical Health Deterioration", "setting": "Regimen 2C N = 8, All Grades", "result": "0 n (%)"}, {"measurement": "AE: Gingival Bleeding", "setting": "Regimen 2C N = 8, All Grades", "result": "0 n (%)"}, {"measurement": "AE: Graft Versus Host Disease", "setting": "Regimen 2C N = 8, All Grades", "result": "0 n (%)"}, {"measurement": "AE: Haemoglobin Decreased", "setting": "Regimen 2C N = 8, All Grades", "result": "0 n (%)"}, {"measurement": "AE: Headache", "setting": "Regimen 2C N = 8, All Grades", "result": "0 n (%)"}, {"measurement": "AE: Hyperbilirubinaemia", "setting": "Regimen 2C N = 8, All Grades", "result": "0 n (%)"}, {"measurement": "AE: Hyperglycaemia", "setting": "Regimen 2C N = 8, All Grades", "result": "0 n (%)"}, {"measurement": "AE: Hyperkalaemia", "setting": "Regimen 2C N = 8, All Grades", "result": "0 n (%)"}, {"measurement": "AE: Hyperphosphataemia", "setting": "Regimen 2C N = 8, All Grades", "result": "1 (12.5) n (%)"}, {"measurement": "AE: Hypoalbuminaemia", "setting": "Regimen 2C N = 8, All Grades", "result": "0 n (%)"}, {"measurement": "AE: Hypocalcaemia", "setting": "Regimen 2C N = 8, All Grades", "result": "0 n (%)"}, {"measurement": "AE: Hypokalaemia", "setting": "Regimen 2C N = 8, All Grades", "result": "0 n (%)"}, {"measurement": "AE: Hypomagnesaemia", "setting": "Regimen 2C N = 8, All Grades", "result": "0 n (%)"}, {"measurement": "AE: Hyponatraemia", "setting": "Regimen 2C N = 8, All Grades", "result": "0 n (%)"}, {"measurement": "AE: Hypophosphataemia", "setting": "Regimen 2C N = 8, All Grades", "result": "0 n (%)"}, {"measurement": "AE: Hypotension", "setting": "Regimen 2C N = 8, All Grades", "result": "0 n (%)"}, {"measurement": "AE: Infection", "setting": "Regimen 2C N = 8, All Grades", "result": "0 n (%)"}, {"measurement": "AE: Infective Glossitis", "setting": "Regimen 2C N = 8, All Grades", "result": "1 (12.5) n (%)"}, {"measurement": "AE: Iron Overload", "setting": "Regimen 2C N = 8, All Grades", "result": "0 n (%)"}, {"measurement": "AE: Leukopenia", "setting": "Regimen 2C N = 8, All Grades", "result": "0 n (%)"}, {"measurement": "AE: Lip Oedema", "setting": "Regimen 2C N = 8, All Grades", "result": "0 n (%)"}, {"measurement": "AE: Lipase Increased", "setting": "Regimen 2C N = 8, All Grades", "result": "0 n (%)"}, {"measurement": "AE: Macular Oedema", "setting": "Regimen 2C N = 8, All Grades", "result": "0 n (%)"}, {"measurement": "AE: Malaise", "setting": "Regimen 2C N = 8, All Grades", "result": "0 n (%)"}, {"measurement": "AE: Mouth Haemorrhage", "setting": "Regimen 2C N = 8, All Grades", "result": "0 n (%)"}]}
